Experimental data published in ChEMBL document CHEMBL1149488, “Antitumour properties of fluorinated benzothiazole-substituted hydroxycyclohexa-2,5-dienones ('quinols')” (2006).

How the values were obtained:
Assay type in all cases: functional
[1] = biological target: T1, Thioredoxin reductase (Homo sapiens) (UniProt Q16881+Q9NNW7+Q86VQ6); experiment: Inhibition of human thioredoxin signalling assessed as inhibition of insulin reduction at 50 uM
[2] = biological target: T1, Thioredoxin reductase (Homo sapiens); experiment: Inhibition of human thioredoxin signalling assessed as inhibition of insulin reduction at 10 uM
[3] = biological target: T1, Thioredoxin reductase (Homo sapiens); experiment: Inhibition of human thioredoxin signalling assessed as inhibition of insulin reduction at 25 uM
[4] = biological target: T1, Thioredoxin reductase (Homo sapiens); experiment: Inhibition of human thioredoxin signalling assessed as inhibition of insulin reduction at 100 uM
[5] = test system: Panel NCI-60 (60 carcinoma cell lines); experiment: Antitumor activity against human NCI60 cells
[6] = test system: MCF7; experiment: Antitumor activity against human MCF7 cells by MTT assay
[7] = test system: MDA-MB-468; experiment: Antitumor activity against human MDA-MB-468 cells by MTT assay
[8] = test system: HCT-116; experiment: Antitumor activity against human HCT116 cells by MTT assay
[9] = test system: HT-29; experiment: Antitumor activity against human HT29 cells by MTT assay

`O=C1C=CC(O)(c2nc3ccccc3s2)C=C1` was tested, and the inhibition [1] was 94.8%, the inhibition [2] was 13.2% and the inhibition [3] was 35.1%. It also gave an inhibition [4] of 95.8%, a GI50 [5] of 230 nM and a GI50 [6] of 440 nM. It also gave a GI50 [7] of 410 nM, a GI50 [8] of 110 nM and a GI50 [9] of 590 nM.
